Where two headings read alike, the source gives them in different places.
How the values were obtained:
Caco-2 cells [1] = settings: cited from earlier work
[2] = tested on: morphine antinociception in mice; assay: Warm-water tail immersion test, blockade of morphine antinociception (Example 2); format: in vivo, mouse (Swiss Webster); settings: s.c., 5 min before morphine 10 mg/kg s.c.; 56 °C
[3] = dose as high as 10 mg/kg; cited from earlier work
MOR [4] = biological target: T1, MOR (Mus musculus, UniProt P42866); parameters: expressed in transfected cells; host or cells: CHO (Chinese hamster ovary) cell line, membrane preparation; settings: Table 13, NAP, cited from earlier work
MOR [5] = biological target: T1, MOR; assay: 35S-GTP[γS]-binding functional assay in MOR expressing CHO cells (Example 2); format: biochemical; parameters: expressed in transfected cells; host or cells: CHO (Chinese hamster ovary) cell line, membrane preparation
Protocol: Furthermore, these systems express the receptor at high density to provide optimal signal-to-noise ratios in the radioligand and ^35S-GTP[γS] binding assays.
(§1) Aliquots of a membrane preparation were incubated with the radioligands in the presence of different concentrations of the drug under investigation at 30° C. for 1 h. […] The potency of the drugs in displacing the specific binding of the radioligand was determined from data using linear regression analysis of Hill plots. The IC50 values will then be determined and corrected to K1 values using the Cheng-Prusoff equation. Functional assays, including ^35S-GTP[γS]-binding assay were conducted in the same cell membranes used for the receptor binding assays.

MOR [6] = biological target: T1, MOR; parameters: expressed in transfected cells; host or cells: CHO (Chinese hamster ovary) cell line, membrane preparation; settings: Table 13 controls and NAP; read-out: Ki μ (see reference 65); cited from earlier work
[7] = tested on: mouse gastrointestinal transit; settings: high doses; cited from earlier work
DOR [8] = biological target: DOR (UniProt P41143); assay: Competitive radioligand binding, [3H]NTI, CHO cells (Example 7); parameters: Ki δ; [3H]NTI; DOR 35S-GTP[γS]; other: three experiments; other: NAP; other: SNC80 normalized to 100%; settings: Table 13, read-out: Ki δ
Protocol: as §1, with “protein (30 μg)” for “preparation”, “corresponding radioligand” for “radioligands”, “Ki” for “K1”, “assays” for “assays, including ^35S-GTP[γS]-binding assay”, “assays. Membrane proteins (10 μg) were incubated with varying concentrations of drugs, GDP (μ: 10 μM; κ and δ: 20 μM) and 0.1 nM ^35S-GTP[γS] in assay buffer for 2 h (μ) or 1.5 h (κ and δ) at 30° C. Nonspecific binding was determined with 10 μM unlabeled GTP[γS].” for “assays.”

DOR [9] = biological target: DOR (UniProt P41143); assay: DOR 35S-GTP[γS] binding assay (Example 7); format: biochemical; parameters: Ki δ; [3H]NTI; DOR 35S-GTP[γS]; other: three experiments; other: NAP; other: SNC80 normalized to 100%; settings: for DOR 35S-GTP[γS] Binding % Emax of SNC80: SNC80 normalized to 100%; for EC50: three experiments
Protocol: as §1, with “protein (30 μg)” for “preparation”, “corresponding radioligand” for “radioligands”, “Ki” for “K1”, “assays” for “assays, including ^35S-GTP[γS]-binding assay”, “assays. Membrane proteins (10 μg) were incubated with varying concentrations of drugs, GDP (μ: 10 μM; κ and δ: 20 μM) and 0.1 nM ^35S-GTP[γS] in assay buffer for 2 h (μ) or 1.5 h (κ and δ) at 30° C. Nonspecific binding was determined with 10 μM unlabeled GTP[γS].” for “assays.”

KOR [10] = biological target: T2, KOR (Homo sapiens, UniProt P41145); assay: KOR 35S-GTP[γS] binding assay (Example 7); format: biochemical; settings: for KOR 35S-GTP[γS] Binding % Emax of U50,488H: U50,488H normalized to 100%; for EC50: three experiments
T2 construct: expressed in transfected cells; host or cells: CHO (Chinese hamster ovary) cell line, membrane preparation
Protocol: as §1, with “protein (30 μg)” for “preparation”, “corresponding radioligand” for “radioligands”, “Ki” for “K1”, “assays” for “assays, including ^35S-GTP[γS]-binding assay”, “assays. Membrane proteins (10 μg) were incubated with varying concentrations of drugs, GDP (μ: 10 μM; κ and δ: 20 μM) and 0.1 nM ^35S-GTP[γS] in assay buffer for 2 h (μ) or 1.5 h (κ and δ) at 30° C. Nonspecific binding was determined with 10 μM unlabeled GTP[γS].” for “assays.”

MOR [11] = biological target: T1, MOR; assay: MOR 35S-GTP[γS] binding assay (Example 7); format: biochemical; parameters: expressed in transfected cells; host or cells: CHO (Chinese hamster ovary) cell line, membrane preparation; settings: Table 13; for MOR 35S-GTP[γS] Binding % Emax of DAMGO: DAMGO normalized to 100%
Protocol: as §1, with “protein (30 μg)” for “preparation”, “corresponding radioligand” for “radioligands”, “Ki” for “K1”, “assays” for “assays, including ^35S-GTP[γS]-binding assay”, “assays. Membrane proteins (10 μg) were incubated with varying concentrations of drugs, GDP (μ: 10 μM; κ and δ: 20 μM) and 0.1 nM ^35S-GTP[γS] in assay buffer for 2 h (μ) or 1.5 h (κ and δ) at 30° C. Nonspecific binding was determined with 10 μM unlabeled GTP[γS].” for “assays.”

KOR [12] = biological target: T2, KOR; assay: Competitive radioligand binding, [3H]norBNI or [3H]DPN, CHO cells (Example 7); settings: Table 13; [3H]norBNI as radioligand; read-out: Ki κ
Protocol: as §1, with “protein (30 μg)” for “preparation”, “corresponding radioligand” for “radioligands”, “Ki” for “K1”, “assays” for “assays, including ^35S-GTP[γS]-binding assay”, “assays. Membrane proteins (10 μg) were incubated with varying concentrations of drugs, GDP (μ: 10 μM; κ and δ: 20 μM) and 0.1 nM ^35S-GTP[γS] in assay buffer for 2 h (μ) or 1.5 h (κ and δ) at 30° C. Nonspecific binding was determined with 10 μM unlabeled GTP[γS].” for “assays.”

MOR [13] = biological target: T1, MOR; assay: Competitive radioligand binding, [3H]naloxone, CHO cells (Example 7); parameters: expressed in transfected cells; host or cells: CHO (Chinese hamster ovary) cell line, membrane preparation; settings: Table 13; for Selectivity δ/μ / Selectivity κ/μ: Ki ratio; for Ki: [3H]naloxone, three experiments, read-out: Ki μ
Protocol: as §1, with “protein (30 μg)” for “preparation”, “corresponding radioligand” for “radioligands”, “Ki” for “K1”, “assays” for “assays, including ^35S-GTP[γS]-binding assay”, “assays. Membrane proteins (10 μg) were incubated with varying concentrations of drugs, GDP (μ: 10 μM; κ and δ: 20 μM) and 0.1 nM ^35S-GTP[γS] in assay buffer for 2 h (μ) or 1.5 h (κ and δ) at 30° C. Nonspecific binding was determined with 10 μM unlabeled GTP[γS].” for “assays.”

Caco-2 cells [14] = assay: Bidirectional transport in Caco-2 cells; format: in vitro ADME
Protocol: To further characterize the permeability of compounds 8 and 12, they were evaluated in Caco-2 cells for their bidirectional transport capacity (FIG. 29).
Caco-2 (passages 45-47; ATCC, Manassas, Va.) cell culture and bidirectional permeability studies with polyester Transwell filters were performed as described previously.^67 Briefly, cells were cultured in Dulbecco's modified Eagle's medium (9.6 g/L glucose) with 10%/fetal bovine serum and supplemented with 100 unit/mL penicillin, 100 μg/mL streptomycin, and 5% nonessential amino acids for 22 days after seeding on 12 mm 0.4 μm #3460 Transwell-Clear inserts (Fisher Scientific) at a density of 80,000 cells/cm^2. […] A portion of the supernatants was analyzed by HPLC-UV using an Alltima HP C18 column (3 μm, 4.6×100 mm; Alltech, Deerfield, Ill.) at 270 nm for NAP, and a Microsorb-MV 100-3 C18 (4.6×100 mm; Varian) column for NMP or NGP at 266 nm. Analytes concentration was quantified from standard curves prepared in transport buffer-acetonitrile (4:1). […] Apparent permeability was then calculated using the following equation: Papp=J/(A×Ci), where J is the transport rate, A is the surface area of the cell monolayer, and Ci is the initial concentration of the dosing solution.

[15] = tested on: morphine antinociceptive effect in mice; settings: antagonizing morphine 10 mg/kg; s.c.; cited from earlier work
[16] = in vivo; cited from earlier work
morphine naive mice = assay: Acute charcoal gavage and intestinal motility assay in morphine naive mice; settings: morphine 10 mg/kg
mice = assay: Tail flick test, acute antinociception (Example 7); settings: 10 mg/kg
DOR [17] = biological target: DOR (UniProt P41143); format: binding; parameters: rows headed: Ki ± SEM [3H]NTI (δ); other: n=3; Ki ± SEM DOR; settings: n=3; read-out: Ki ± SEM DOR
KOR [18] = biological target: T2, KOR; format: binding; settings: n=3; read-out: Ki ± SEM KOR
MOR [19] = biological target: T1, MOR; assay: [35S]GTPγS functional assay (Example 1); format: biochemical; parameters: expressed in transfected cells; host or cells: CHO (Chinese hamster ovary) cell line, membrane preparation; settings: Emax of compound vs Emax of DAMGO (normalized to 100%)
MOR [20] = biological target: T1, MOR; assay: Competitive radioligand binding, [3H]DAMGO, mono-cloned receptor in CHO cells (Example 1); parameters: expressed in transfected cells; host or cells: CHO (Chinese hamster ovary) cell line, membrane preparation; settings: read-out: Ki ± SEM [3H]DAMGO (μ); n=3
MOR [21] = biological target: T1, MOR; assay: Competitive radioligand binding, [3H]naloxone, CHO cells (Example 2); parameters: expressed in transfected cells; host or cells: CHO (Chinese hamster ovary) cell line, membrane preparation; settings: n=3; read-out: Ki ± SEM MOR
KOR [22] = biological target: T2, KOR; format: binding; settings: n=3; read-out: Ki ± SEM [3H]norBNI (κ)
DOR [23] = biological target: DOR (UniProt P41143); format: binding; parameters: rows headed: Ki ± SEM [3H]NTI (δ); other: n=3; Ki ± SEM DOR; settings: n=3; read-out: Ki ± SEM [3H]NTI (δ)

Molecule	AD50 value for blockade of morphine antinociception [2]	Ki (DOR [8])	DOR 35S-GTP[γS] Binding % Emax of SNC80 (DOR [9])	EC50 (DOR [9])	KOR 35S-GTP[γS] Binding % Emax of U50,488H (KOR [10])	EC50 (KOR [10])	EC50 (MOR [11])	MOR 35S-GTP[γS] Binding % Emax of DAMGO (MOR [11])	Ki (KOR [12])	Selectivity δ/μ (MOR [13])	Selectivity κ/μ (MOR [13])	Ki (MOR [13])	apparent permeability / bidirectional transport (Caco-2 cells [14])	further results
17-Cyclopropylmethyl-3,14β-dihydroxy-4,5α-epoxy-6β-[(4′-pyridyl)acetamido]morphinan [Compound 6]	4.5198 (2.4570 to 8.269.12) mg/kg (95% C.L.)													apparent permeability (words, reported previously) (Caco-2 cells [1]): significantly low; withdrawal symptoms [3]: marginal withdrawing symptoms; MOR 35S-GTP[γS] Binding % Emax of DAMGO (see reference 65) (MOR [4]): 22.72 ± 0.84%; EC50 (MOR [4]; read-out: MOR 35S-GTP[γS] Binding EC50 (see reference 65)): 1.14 ± 0.38 nM; EC50 (MOR [5]; n=3): 1.15 ± 0.384 nM; Emax (% Stim) (MOR [5]; n=3): 83.3 ± 3.1 % Stim; Percent Max of DAMGO (MOR [5]; normalized to full agonist DAMGO (3 μM)): 22.72 ± 0.84%; Ki (MOR [6]): 0.37 ± 0.07 nM; diarrhea [7]: incidence of diarrhea associated with high doses of NAP
17-Cyclopropylmethyl-3,14β-dihydroxy-4,5α-epoxy-6β-{2′-[(pyridine-4″-yl)carboxamido]acetamido}morphinan [Compound 12]		526 ± 78.3 nM	84.3 ± 23.2%	19 ± 2.9 nM	23.5 ± 1.6%	25 ± 22.4 nM	2.84 ± 0.53 nM	22.62 ± 0.66%	203 ± 67 nM	719	278	0.73 ± 0.59 nM	no significant difference in its bidirectional transport capacity	
17-Cyclopropylmethyl-3,14β-dihydroxy-4,5α-epoxy-6β-{[4′-(3′-methylpyridyl)]carboxamido}morphinan [Compound 8]		273.6 ± 1.8 nM	90.2 ± 21.0%	38.6 ± 10 nM	31.4 ± 3.9%	26.4 ± 8.4 nM	1.52 ± 0.26 nM	30.63 ± 0.55%	96.7 ± 12.2 nM	470	166	0.58 ± 0.25 nM	low permeability	
C=CCN1CC[C@]23c4c5ccc(O)c4O[C@H]2C(=O)CC[C@@]3(O)[C@H]1C5 [Naloxone, reference compound]	0.05 (0.03 to 0.09) mg/kg (95% C.L.)													AD50 values (data taken from Li, et al.) [15]: 0.05 (0.03-0.09) mg/kg (95% CL); systemic bioavailability [16]: ~2%
CN1CC[C@]23c4c5ccc(O)c4O[C@H]2[C@@H](O)C=C[C@H]3[C@H]1C5.O=S(=O)(O)O [morphine, Morphine sulfate]														intestinal motility (% of intestine length travelled by charcoal) (morphine naive mice): 12.4±2.0%; percentage maximum possible effect (% MPE) (mice): 100%
COC(=O)/C=C/C(=O)N[C@@H]1CC[C@@]2(O)[C@H]3Cc4ccc(O)c5c4[C@@]2(CCN3CC2CC2)[C@H]1O5 [β-FNA, β-funaltrexamine]														Ki (DOR [17]): 27.8 ± 4.6 nM; Ki (KOR [18]): 0.94 ± 0.05 nM; Percent Max of DAMGO (MOR [19]): 0.00%; Ki (MOR [20]): 0.41 ± 0.04 nM; Ki (MOR [21]): 0.41 ± 0.04 nM; Ki (KOR [22]): 0.94 ± 0.05 nM; Ki (DOR [23]): 27.8 ± 4.6 nM
